According to PubChem BioAssay AID330 (DTP/NCI, 2004):
Values joined by “and” are separate entries in the source; they are usually repeats but may differ in a detail not shown here. Equal values may be shown once. Toxic doses and inconclusive results are not listed.

System: P388 leukemia ip, CD2F1 mice, survival T/C
Assay: NCI In Vivo Anticancer Drug Screen. Data for tumor model P388 Leukemia (intraperitoneal) in CD2F1 (CDF1) mice
Details: endpoint: median survival time, higher = longer survival
In short: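 Mice carrying the transplanted tumor received test compound or vehicle. Survival was recorded in each group, and the value is the treated-group measurement divided by that of the vehicle-treated control group.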

[1] = dose: 100.0 mg/kg/injection, schedule: Q04DX003 (ip), vehicle: saline
[2] = dose: 200.0 mg/kg/injection, schedule: Q04DX003 (ip), vehicle: saline
[3] = dose: 400.0 mg/kg/injection, schedule: Q04DX003 (ip), vehicle: saline
[4] = dose: 25.0 mg/kg/injection, schedule: Q01DX005 (ip), vehicle: Klucel (hydroxypropylcellulose) (HPC)
[5] = dose: 50.0 mg/kg/injection, schedule: Q01DX005 (ip), vehicle: Klucel (hydroxypropylcellulose) (HPC)
[6] = dose: 100.0 mg/kg/injection, schedule: Q01DX005 (ip), vehicle: Klucel (hydroxypropylcellulose) (HPC)
[7] = dose: 200.0 mg/kg/injection, schedule: Q01DX005 (ip), vehicle: Klucel (hydroxypropylcellulose) (HPC)
[8] = dose: 50.0 mg/kg/injection, schedule: Q01DX009 (ip), vehicle: saline
[9] = dose: 100.0 mg/kg/injection, schedule: Q01DX009 (ip), vehicle: saline
[10] = dose: 200.0 mg/kg/injection, schedule: Q01DX009 (ip), vehicle: saline
[11] = dose: 400.0 mg/kg/injection, schedule: Q01DX009 (ip), vehicle: saline
[12] = dose: 100.0 mg/kg/injection, schedule: Q01DX001 (ip), vehicle: saline with Tween-80
[13] = dose: 200.0 mg/kg/injection, schedule: Q01DX001 (ip), vehicle: saline with Tween-80
[14] = dose: 400.0 mg/kg/injection, schedule: Q01DX001 (ip), vehicle: saline with Tween-80
[15] = dose: 60.0 mg/kg/injection, schedule: Q01DX005 (ip), vehicle: saline with Tween-80
[16] = dose: 120.0 mg/kg/injection, schedule: Q01DX005 (ip), vehicle: saline with Tween-80
[17] = dose: 240.0 mg/kg/injection, schedule: Q01DX005 (ip), vehicle: saline with Tween-80
[18] = dose: 30.0 mg/kg/injection, schedule: Q01DX005 (ip), vehicle: saline with Tween-80

O=C(Nc1ccc(C2=NCCN2)cc1)c1ccc(C(=O)Nc2ccc(C3=NCCN3)cc2)cc1
T/C (dose: 75.0 mg/kg/injection, schedule: Q01DX010 (ip), vehicle: saline): 118 % of control
T/C (dose: 112.0 mg/kg/injection, schedule: Q01DX010 (ip), vehicle: saline): 100 % of control

CC1COCCOCCOCC(C)OC(=O)CSCC(=O)O1 (stereo not drawn)
T/C [1]: 100 % of control
T/C [2]: 104 % of control
T/C [3]: 92 % of control

CC/C(=N/NS(=O)(=O)c1ccc(C)cc1)C(=O)O
T/C [4]: 90 % of control
T/C [5]: 92 % of control
T/C [6]: 92 % of control
T/C [7]: 91 % of control
T/C (dose: 400.0 mg/kg/injection, schedule: Q01DX005 (ip), vehicle: Klucel (hydroxypropylcellulose) (HPC)): 88 % of control

O=C(O)c1cccnc1C(=O)O
T/C [8]: 105 % of control
T/C [9]: 96 % of control and 100 % of control and 111 % of control
T/C [10]: 86 % of control and 102 % of control and 97 % of control
T/C [11]: 100 % of control and 90 % of control

S=P1(Sc2ccccc2)Oc2ccccc2O1
T/C (dose: 12.5 mg/kg/injection, schedule: Q01DX001 (ip), vehicle: saline with Tween-80): 99 % of control
T/C (dose: 25.0 mg/kg/injection, schedule: Q01DX001 (ip), vehicle: saline with Tween-80): 100 % of control
T/C (dose: 50.0 mg/kg/injection, schedule: Q01DX001 (ip), vehicle: saline with Tween-80): 106 % of control
T/C [12]: 90 % of control

c1ccc2c(NCCCCCCCCNc3c4ccccc4nc4ccccc34)c3ccccc3nc2c1
T/C (dose: 0.62 mg/kg/injection, schedule: Q## X009 (ip), vehicle: lactic acid): 121 % of control
T/C (dose: 0.63 mg/kg/injection, schedule: Q01DX009 (ip), vehicle: other): 104 % of control and 114 % of control
T/C (dose: 1.25 mg/kg/injection, schedule: Q01DX009 (ip), vehicle: lactic acid): 161 % of control
T/C (dose: 1.25 mg/kg/injection, schedule: Q01DX009 (ip), vehicle: saline): 124 % of control
T/C (dose: 2.5 mg/kg/injection, schedule: Q01DX009 (ip), vehicle: lactic acid): 159 % of control
T/C (dose: 2.5 mg/kg/injection, schedule: Q## X009 (ip), vehicle: lactic acid): 154 % of control
T/C (dose: 10.0 mg/kg/injection, schedule: Q01DX009 (ip), vehicle: saline): 153 % of control
T/C (dose: 40.0 mg/kg/injection, schedule: Q01DX009 (ip), vehicle: saline): 90 % of control
T/C (dose: 80.0 mg/kg/injection, schedule: Q04DX003 (ip), vehicle: Klucel (hydroxypropylcellulose) (HPC)): 88 % of control

CCc1ccc[n+](-c2nc3c([O-])n(C)c(=O)n(C)c-3n2)c1
T/C [1]: 91 % of control
T/C [2]: 100 % of control
T/C [3]: 94 % of control

CCOC(=O)C12CCC(C(=O)OCC)(CC13SCCS3)C1(C2)SCCS1
T/C [12]: 97 % of control
T/C [13]: 99 % of control
T/C [14]: 97 % of control

CC1(CN2CCCCC2)COc2c(Cl)cc(Cl)cc2C1=O (stereo not drawn)
T/C [15]: 94 % of control
T/C [16]: 94 % of control
T/C [17]: 86 % of control

Cn1c(-c2ccc3c(c2)OCO3)nn(CN2CCOCC2)c1=S
T/C [5]: 97 % of control
T/C [6]: 100 % of control
T/C [7]: 107 % of control

CCN(CC)Cc1ccc(N)cc1O
T/C [8]: 106 % of control and 107 % of control
T/C [9]: 97 % of control and 98 % of control
T/C [10]: 99 % of control and 97 % of control

CCOc1ccc(/C=N/NC(=S)NC23CC4CC(CC(C4)C2)C3)cc1OCC
T/C [18]: 108 % of control
T/C [15]: 102 % of control and 86 % of control
T/C [16]: 90 % of control

CN(C(=[Se])[Se]C(=[Se])N(C)C1CCCCC1)C1CCCCC1
T/C (dose: 15.0 mg/kg/injection, schedule: Q01DX005 (ip), vehicle: Klucel (hydroxypropylcellulose) (HPC)): 95 % of control
T/C (dose: 30.0 mg/kg/injection, schedule: Q01DX005 (ip), vehicle: Klucel (hydroxypropylcellulose) (HPC)): 96 % of control
T/C (dose: 60.0 mg/kg/injection, schedule: Q01DX005 (ip), vehicle: Klucel (hydroxypropylcellulose) (HPC)): 100 % of control and 93 % of control
T/C (dose: 120.0 mg/kg/injection, schedule: Q01DX005 (ip), vehicle: Klucel (hydroxypropylcellulose) (HPC)): 99 % of control

C[N+](C)(C)CCc1ccc2ccccc2c1
T/C (dose: 25.0 mg/kg/injection, schedule: Q04DX002 (ip), vehicle: saline + alcohol): 96 % of control
T/C (dose: 50.0 mg/kg/injection, schedule: Q04DX002 (ip), vehicle: saline + alcohol): 92 % of control
T/C (dose: 100.0 mg/kg/injection, schedule: Q04DX002 (ip), vehicle: saline + alcohol): 106 % of control and 108 % of control

N#Cc1ccc(OC(=O)Nc2cc(Cl)cc(Cl)c2)cc1
T/C [15]: 89 % of control
T/C [16]: 106 % of control
T/C [17]: 101 % of control

O=c1c2ccccc2nc(CN(CCCl)CCCl)n1-c1ccc(O)c(CN(CCCl)CCCl)c1
T/C [12]: 151 % of control
T/C [13]: 155 % of control
T/C [14]: 270 % of control

C=C(C)c1nc(N)nc(N2CCCCC2)n1
T/C [5]: 98 % of control
T/C [6]: 102 % of control
T/C [7]: 117 % of control

O=C1OCCC1C(=O)c1ccccc1 (stereo not drawn)
T/C (dose: 50.0 mg/kg/injection, schedule: Q01DX001 (ip), vehicle: saline): 112 % of control
T/C (dose: 100.0 mg/kg/injection, schedule: Q01DX001 (ip), vehicle: saline): 112 % of control
T/C (dose: 200.0 mg/kg/injection, schedule: Q01DX001 (ip), vehicle: saline): 97 % of control

CC(=Nc1c(C)noc1/C=C/c1ccccc1)NO
T/C (dose: 12.5 mg/kg/injection, schedule: Q04DX002 (ip), vehicle: saline with Tween-80): 104 % of control
T/C (dose: 25.0 mg/kg/injection, schedule: Q04DX002 (ip), vehicle: saline with Tween-80): 97 % of control
T/C (dose: 50.0 mg/kg/injection, schedule: Q04DX002 (ip), vehicle: saline with Tween-80): 95 % of control
T/C (dose: 100.0 mg/kg/injection, schedule: Q04DX002 (ip), vehicle: saline with Tween-80): 87 % of control

O=C1NC(Cc2c[nH]c3ccccc23)C(=O)N2CCCC12 (stereo not drawn)
T/C [5]: 100 % of control
T/C [6]: 104 % of control
T/C [7]: 97 % of control

[Pd].c1ccc([PH+](CC[PH+](c2ccccc2)c2ccccc2)c2ccccc2)cc1.c1ccc([PH+](CC[PH+](c2ccccc2)c2ccccc2)c2ccccc2)cc1
T/C [18]: 99 % of control

CC1CCC2(C(=O)O)CCC3(C)C(=CCC4C5(C)CC(O)C(O)C(C)(CO)C5C(O)CC43C)C2C1C (stereo not drawn)
T/C [4]: 90 % of control
T/C [5]: 92 % of control
T/C [6]: 95 % of control

[Cl][Hg][c]1ccccc1N=Nc1ccccc1I
T/C (dose: 12.5 mg/kg/injection, schedule: Q01DX009 (ip), vehicle: saline with Tween-80): 101 % of control
T/C (dose: 25.0 mg/kg/injection, schedule: Q01DX009 (ip), vehicle: saline with Tween-80): 96 % of control
T/C (dose: 50.0 mg/kg/injection, schedule: Q01DX009 (ip), vehicle: saline with Tween-80): 113 % of control and 98 % of control
T/C (dose: 100.0 mg/kg/injection, schedule: Q01DX009 (ip), vehicle: saline with Tween-80): 122 % of control and 94 % of control

O=C(/C=C/c1ccccc1)NC1C=Nc2ccc(Cl)cc2NC1=O (stereo not drawn)
T/C [15]: 97 % of control
T/C [16]: 95 % of control
T/C [17]: 97 % of control

Cc1cc(O)c(O)c(Oc2cc(C)cc(O)c2O)c1
T/C (dose: 75.0 micrograms/kg/injection, schedule: Q01DX009 (ip), vehicle: saline): 100 % of control
T/C (dose: 150.0 micrograms/kg/injection, schedule: Q01DX009 (ip), vehicle: saline): 109 % of control
T/C (dose: 300.0 micrograms/kg/injection, schedule: Q01DX009 (ip), vehicle: saline): 102 % of control

N#CCC(=O)NCc1ccncc1
T/C (dose: 25.0 mg/kg/injection, schedule: Q01DX009 (ip), vehicle: saline): 110 % of control
T/C [8]: 100 % of control
T/C [9]: 108 % of control
T/C [10]: 110 % of control
T/C [11]: 101 % of control

CC(O)C(C(c1ccccc1)N1CCOCC1)N1CCOCC1 (stereo not drawn)
T/C [5]: 99 % of control
T/C [6]: 90 % of control
T/C [7]: 98 % of control
